# Source: ChEMBL document CHEMBL1201862, “PubChem BioAssay data set” (2004)
# Active and inactive are the calls of the source.
# What was measured:
# [1] = biological target: T1, Runt-related transcription factor 1/Core-binding factor subunit beta (Homo sapiens, UniProt Q01196+Q13951); experiment: inhibitors of RUNX1 Runt–CBFb-SMMHC binding, primary screen, biochemical, FRET, Cerulean-Runt, Venus-CBFb-SMMHC, uHTS (AID 1434); type: protein assay;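 further: partner is the CBFb-SMMHC leukemia fusion protein rather than wild-type CBFb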
# [2] = biological target: T1, Runt-related transcription factor 1/Core-binding factor subunit beta; experiment: inhibitors of RUNX1 Runt–CBFb-SMMHC binding, biochemical, TR-FRET (AID 1438); type: protein assay
# [3] = biological target: E3 ubiquitin-protein ligase XIAP (Homo sapiens, UniProt P98170); experiment: Counter Screen using XIAP-Bir3 for Chemical Antagonists of Bir1/2 domains of IAP-family anti-apoptotic proteins. [Related pubchem assays (depositor defined):AID1018, AID1449, AID1514, AID1638, AID1749, AID1750, AID488957, AID488963]
# [4] = biological target: Bcl-2-related protein A1 (Mus musculus, UniProt Q07440); type: functional;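 further: confirmatory dose–response counterscreen on Bfl-1, used to check hits from a UBC13 polyubiquitin inhibitor campaign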
# [5] = biological target: T2, Ubiquitin-conjugating enzyme E2 N (Homo sapiens, UniProt P61088); type: functional
# T2 sequence (P61088 whole entry): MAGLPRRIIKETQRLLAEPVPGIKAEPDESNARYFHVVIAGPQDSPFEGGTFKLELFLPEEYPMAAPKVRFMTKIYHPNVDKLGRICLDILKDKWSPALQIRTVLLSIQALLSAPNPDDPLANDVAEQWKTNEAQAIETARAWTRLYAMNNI
# [6] = biological target: T3, Short transient receptor potential channel 4 (Mus musculus, UniProt Q9QUQ5); experiment: mouse TRPC4 channel activators, dose response, cell-based, HEK293 TRPC4/mu-opioid, Fluo-4 calcium (AID 434937); type: functional
# T3 sequence (Q9QUQ5 whole entry): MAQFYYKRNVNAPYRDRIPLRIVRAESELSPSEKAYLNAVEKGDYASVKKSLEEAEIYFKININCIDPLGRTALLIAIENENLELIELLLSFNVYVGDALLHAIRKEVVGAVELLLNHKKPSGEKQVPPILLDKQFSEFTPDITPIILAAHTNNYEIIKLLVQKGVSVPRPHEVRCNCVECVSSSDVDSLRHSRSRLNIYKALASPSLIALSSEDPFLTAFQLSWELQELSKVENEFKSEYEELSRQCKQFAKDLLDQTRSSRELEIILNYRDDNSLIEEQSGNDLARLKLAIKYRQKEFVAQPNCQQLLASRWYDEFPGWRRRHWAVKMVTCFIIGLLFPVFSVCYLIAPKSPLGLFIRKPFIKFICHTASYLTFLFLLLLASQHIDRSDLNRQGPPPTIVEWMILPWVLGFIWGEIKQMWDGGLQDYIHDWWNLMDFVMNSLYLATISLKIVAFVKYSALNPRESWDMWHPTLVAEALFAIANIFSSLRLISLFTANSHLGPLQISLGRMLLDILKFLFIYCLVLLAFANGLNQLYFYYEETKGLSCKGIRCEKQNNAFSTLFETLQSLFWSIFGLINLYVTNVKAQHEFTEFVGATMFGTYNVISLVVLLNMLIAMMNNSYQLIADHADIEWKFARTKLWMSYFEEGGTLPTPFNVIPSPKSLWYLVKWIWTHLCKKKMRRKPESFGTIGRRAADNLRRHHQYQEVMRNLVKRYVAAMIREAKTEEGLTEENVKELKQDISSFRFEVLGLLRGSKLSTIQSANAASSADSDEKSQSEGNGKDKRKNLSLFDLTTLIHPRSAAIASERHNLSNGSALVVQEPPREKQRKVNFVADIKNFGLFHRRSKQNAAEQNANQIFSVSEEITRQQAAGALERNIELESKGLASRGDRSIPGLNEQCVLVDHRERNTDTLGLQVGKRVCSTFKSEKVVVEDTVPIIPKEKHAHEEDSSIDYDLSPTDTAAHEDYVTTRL
# [7] = biological target: T2, Ubiquitin-conjugating enzyme E2 N; type: functional; remark: listed apart in the source
# [8] = biological target: Nonstructural protein 1 (Influenza A virus, UniProt Q194T2); type: functional, Influenza A virus (A/California/07/2009(H1N1))
# [9] = biological target: Type-1 angiotensin II receptor (Homo sapiens, UniProt P30556); experiment: AT1 receptor agonists, dose response, selectivity assay for APJ receptor agonist project, cell-based, uHTS hits (AID 488865); type: functional;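 further: beta-arrestin recruitment to AT1 measured by enzyme fragment complementation luminescence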
# [10] = biological target: T4, Delta-type opioid receptor (Homo sapiens, UniProt P41143); experiment: Counterscreen for agonists of heterodimerization of the mu 1 (OPRM1) and delta 1 (OPRD1) opioid receptors: Luminescence-based cell-based high throughput dose response assay to identify agonists of OPRD1 homodimerization. [Related pubchem assays (depositor defined):AID504326, AID504355, AID504692, AID504904, AID504905]; type: functional
# [11] = biological target: T5, Mu-type opioid receptor (Homo sapiens, UniProt P35372); experiment: Counterscreen for agonists of heterodimerization of the mu 1 (OPRM1) and delta 1 (OPRD1) opioid receptors: Luminescence-based cell-based high throughput dose response assay to identify agonists of OPRM1 homodimerization.; type: functional
# [12] = biological target: 5-hydroxytryptamine receptor 5A (Homo sapiens, UniProt P47898); experiment: Counterscreen for agonists of OPRM1-OPRD1 heterodimerization: luminescence-based cell-based high throughput dose response assay to identify agonists of 5-hydroxytryptamine (serotonin) 5A receptor (HTR5A). [Related pubchem assays (depositor defined):AID504326, AID504355, AID504692, AID504904, AID504905]; type: functional
# [13] = tested on: INS1; experiment: beta cell apoptosis inhibitors, cytokine rescue, dose response, luminescence, retest (AID 449756); type: functional, cell-based; conditions: Rattus norvegicus;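 further: cell death triggered by IL-1 beta plus TNF-alpha plus IFN-gamma mixture; protective hits raise ATP signal compared with cytokine alone wells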
# [14] = biological target: Troponin, cardiac muscle (Homo sapiens, UniProt P19429+P45379+P63316); experiment: Fluorescence-based biochemical high throughput dose response assay for activators of the calcium sensitivity of cardiac Regulated Thin Filaments (RTF). [Related pubchem assays (depositor defined):AID493008, AID493018, AID504382, AID504383]; type: protein-complex assay
# [15] = biological target: T6, Tyrosine-protein phosphatase non-receptor type 7 (Homo sapiens, UniProt P35236); experiment: redox-dependent HePTP inhibition, mechanism study, biochemical, fluorescence (AID 2068); type: functional
# T6 sequence (P35236 whole entry): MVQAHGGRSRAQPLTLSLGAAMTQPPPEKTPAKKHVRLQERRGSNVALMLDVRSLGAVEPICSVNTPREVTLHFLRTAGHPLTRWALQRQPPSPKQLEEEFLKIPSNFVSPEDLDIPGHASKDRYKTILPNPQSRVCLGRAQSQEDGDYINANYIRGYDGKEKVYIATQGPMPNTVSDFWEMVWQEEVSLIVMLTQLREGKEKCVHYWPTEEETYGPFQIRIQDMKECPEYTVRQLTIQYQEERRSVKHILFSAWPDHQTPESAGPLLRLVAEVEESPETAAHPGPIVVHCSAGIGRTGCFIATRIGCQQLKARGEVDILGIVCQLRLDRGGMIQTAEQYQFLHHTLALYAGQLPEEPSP
# [16] = biological target: T5, Mu-type opioid receptor; experiment: SAR Analysis of Antagonists of the MOR Receptor using an Image-Based Assay - Set 3. [Related pubchem assays (depositor defined):AID1777, AID1785, AID1786, AID1966, AID2133, AID2136, AID2284, AID2285, AID2420]; type: functional
# [17] = biological target: T4, Delta-type opioid receptor; experiment: SAR Analysis of Antagonists of the DOR Receptor using an Image-Based Assay - Set 3. [Related pubchem assays (depositor defined):AID1777, AID1785]; type: functional
# [18] = biological target: T7, Kappa-type opioid receptor (Homo sapiens, UniProt P41145); experiment: SAR analysis of small molecule antagonists of the kappa opioid receptor via a luminescent beta-arrestin assay - Set 3. [Related pubchem assays (depositor defined):AID1777, AID1778, AID1785, AID1786, AID1966, AID2133, AID2136, AID2285, AID2495]; type: functional
# [19] = biological target: T7, Kappa-type opioid receptor; experiment: SAR analysis of Antagonists of the Kappa Opioid Receptor (KOR) using an Image-Based Assay - Set 3. [Related pubchem assays (depositor defined):AID1777, AID1785]; type: functional
structure (smiles),measurement,setting,value
O=C(NCc1ccccn1)c1cc2c(ccc3ccccc32)oc1=O,IC50,[1],1.33 µM (active)
same,IC50,[2],> 100 µM (inactive)
CC(C)(C)c1ccc(C(CC(=O)O)NC(=O)Cc2ccc(F)cc2)cc1 (centres undefined),IC50,[3],> 20 µM (inactive)
Cc1ccc2nc(N(CCCN(C)C)C(=O)c3ccc(S(=O)(=O)N4CCc5ccccc5C4)cc3)sc2c1,IC50,[4],> 20 µM (inactive)
same,IC50,[5],11 µM (active)
same,EC50,[6],3.35 µM (active)
same,IC50,[7],7.23 µM (active)
same,IC50,[8],> 50 µM (active)
same,EC50,[9],57.8 µM (inactive)
same,EC50,[10],> 92.5 µM (inactive)
same,EC50,[11],10.2 µM (inactive)
same,EC50,[12],> 92.5 µM (inactive)
same,AC50,[13],6.05 µM (active)
Cc1ccc(C)c(N2CCN(C(=O)CN3C(S)=NC(C)(C)CC3C)CC2)c1 (centres undefined),EC50,[14],> 71.5 µM (inactive)
O=C(NCc1ccco1)Nc1ccc2nc(-c3ccco3)c(-c3ccco3)nc2c1,IC50,[15],> 50 µM (inactive)
O=C(NCCN(Cc1ccccc1)Cc1ccccc1)c1ccc(CNS(=O)(=O)c2ccc(Br)cc2)cc1,IC50,[16],> 32 µM (inactive)
same,IC50,[17],> 32 µM (inactive)
same,IC50,[18],> 20 µM (inactive)
same,IC50,[19],6.08 µM (active)
